Source: patent US20110130421A1, “Methods and Compositions for the Treatment of Chronic Renal Hypertension” (Georgetown University, priority 2009, published 2011)
“Also recorded” adds a separate entry of the source.

Columns and labels:
[1] = tested on: chronic 2K,1C Goldblatt rats; experiment: Acute interventions in anesthetized chronic 2K,1C rats twelve months after clipping: MAP, cortical blood flow and renal pO2 of the clipped kidney; assay type: in vivo, Sprague-Dawley rats
Protocol: (§1) As described in Welch et al., Hypertension, 41:692-696 (2003) and Palm et al., Hypertension, 51:345-351 (2008), young male Sprague-Dawley rats (80-100 g) were anesthetized with isoflurane (0.5-1.5%). A silver clip (0.2 mm) was placed around the left renal artery (2K,1C). Age-matched rats were used as controls (sham).
(§2) All rats received hydralazine+hydrochlorothiazide+reserpine (HHR; 30+10+0.2 mg·kg^−1·day^−1) in the drinking water as described in Welch et al., Kidney Int., 63:202-208 (2003) in order to maximize survival of the clipped rats. The HHR treatment was discontinued 14 days prior to undergoing the protocol described hereinafter.
(§3) Twelve months after clipping, all rats were anesthetized with Inactin (100 mg·kg^−1 i.p.; Sigma-Aldrich, St. Louis, Mo.), and an endotracheal tube was inserted for spontaneous respiration. Rats were prepared according to the protocol described in Palm et al., Hypertension, 51:345-351 (2008). Briefly, the left femoral artery was catheterized for monitoring mean arterial blood pressure (MAP) and the left femoral vein for infusion of saline (5 ml·kg bw^−1·h^−1). The left kidney was immobilized in a plastic cup while renal cortical pO2 and cortical blood flow (CBF) were measured with O2 microelectrodes (Unisense, Aarhus, Denmark) and laser-Doppler needle probes (Transonic Systems Inc, Ithaca, N.Y.) as described in Palm et al., Diabetologia, 46:1153-1160 (2003); Palm et al., Hypertension, 51:345-351 (2008); and Liss et al., Pflügers Arch., 434:705-711 (1997).
Measurements in 2K,1C rats were made before and after injections of PD-123,319 (1 mg·kg bw^−1 bolus+1 mg·kg bw^−1·h^−1; Sigma Aldrich) followed 30 minutes later by either enalaprilat (0.3 mg·kg bw^−1 bolus+0.3 mg·kg bw^−l·h^−1; Novaplus 1.25 mg·m^−1; Baxter Healthcare Corporation, Deerfield, Ill.) or tempol (174 μmmol·kg bw^−1 bolus+174 μmmol·kg bw^−1·h^−1; Sigma Aldrich) followed 30 minutes later by enalaprilat or candesartan (1 mg·kg bw^−1 bolus+1 mg·kg bw^−1·h^−1; provided by Astra Zeneca, Södertälje Sweden) followed after 30 minutes by enalaprilat. […] See e.g., Duke et al., Br. J. Pharmacol., 144:486-492 (2005).
The data in Example 1 was analyzed using ANOVA for multiple data sets and Student's t-test for paired comparisons. When appropriate, this was followed by Dunnett's post hoc. […] The Mann-Whitney test was used for Western blot densitometry data. For all comparisons, p<0.05 was considered statistically significant. All values are expressed as mean±SEM.

normal rats = conditions: cited from earlier work
[2] = tested on: 2K,1C Goldblatt rats in the early stages of renal hypertension; conditions: early stage 2K,1C Goldblatt rats; prolonged administration; cited from earlier work
essential hypertension = conditions: cited from earlier work
sham rats = experiment: Acute interventions in anesthetized age-matched sham rats: MAP, cortical blood flow and renal pO2; assay type: in vivo, Sprague-Dawley rats
Protocol: as §1, §2
as §3, with “Rats were prepared according to the protocol described in Palm et al., Hypertension, 51:345-351 (2008). Briefly, the left femoral artery was catheterized for monitoring mean arterial blood pressure (MAP) and the left femoral vein for infusion of saline (5 ml·kg bw^−1·h^−1).” left out, “(1997). […]” for “(1997).”
The data in Example 1 was analyzed using ANOVA for multiple data sets and Student's t-test for paired comparisons. […] All values are expressed as mean±SEM.

[3] = solutions containing Tempol; cited from earlier work
[4] = reported, in contrast to early stage 2K,1C rats; similar results in a hypercholesterolemic pig model; cited from earlier work
[5] = acute i.v. bolus + infusion of the agent alone
[6] = clipped kidney, agent alone, listed as tempol

## Cc1cc(Cn2cnc3c2C[C@@H](C(=O)O)N(C(=O)C(c2ccccc2)c2ccccc2)C3)ccc1N(C)C [PD-123,319, reference compound]
[1]; [5]
  mean arterial blood pressure (MAP): unaffected
[1]; clipped kidney, agent alone
  renal cortical blood flow (CBF): Neither candesartan nor PD-123,319 alone changed CBF significantly
Normal rats
  mean arterial pressure or kidney function: has not been found to change mean arterial pressure or kidney function

## CC1(C)CC(O)CC(C)(C)N1[O] [Tempol, 4-hydroxy-2,2,6,6-tetramethyl-1-piperidine-1-oxyl]
[2]
  glomerular filtration rate (GFR): improved the glomerular filtration rate (GFR)
  mean arterial pressure (MAP): reduced mean arterial pressure (MAP)
  oxygen tension (pO2) of the clipped kidney: improved oxygen tension (pO2) of the clipped kidney
  renal blood flow: improved renal blood flow
Essential hypertension
  anti-hypertensive effect: demonstrated anti-hypertensive effect
Sham rats
  renal cortical pO2: not effective
[1]; [5]
  mean arterial blood pressure (MAP): lowers MAP; also recorded: more effective in lowering MAP
[1]; acute i.v. bolus + infusion of the agent alone, listed as tempol
  mean arterial blood pressure (MAP): significantly more effective
[1]; clipped kidney, agent alone
  renal cortical blood flow (CBF): effectively increases both the cortical blood flow and the tissue pO2
  renal cortical pO2: effectively increases both the cortical blood flow and the tissue pO2
  renal medullary pO2: effectively increases both the cortical blood flow and the tissue pO2
[1]; [6]
  renal cortical blood flow (CBF): increased
  renal cortical pO2: increased the cortical pO2
  renal medullary pO2: increased the medullary pO2
[3]
  stability of solutions left in sunlight: discolor when left in sunlight
[4]
  renal blood flow, cortical perfusion or GFR: failed to improve renal blood flow, cortical perfusion or GFR

## C[C@H](N[C@@H](CCc1ccccc1)C(=O)O)C(=O)N1CCC[C@H]1C(=O)O [enalaprilat, reference compound]
Sham rats
  renal cortical pO2: increased cortical pO2
[1]; enalaprilat after tempol
  renal cortical blood flow (CBF): did not change further
  renal medullary pO2: did not change the medullary pO2 further
[1]; enalaprilat following candesartan
  renal cortical blood flow (CBF): reduced significantly
[1]; enalaprilat given 30 minutes after PD-123,319
  mean arterial blood pressure (MAP): did reduce the MAP
[1]; enalaprilat given 30 minutes after candesartan
  mean arterial blood pressure (MAP): did not produce a further fall in MAP
[1]; enalaprilat given 30 minutes after tempol
  mean arterial blood pressure (MAP): did not produce a further fall in MAP
[1]; tempol followed by enalaprilat
  renal cortical pO2: not changed significantly
